We go through five molecules from ChEMBL document CHEMBL4052622, “Geldanamycin-inspired compounds induce direct trans-differentiation of human mesenchymal stem cells to neurons” (Eur J Med Chem, 2017).

Common to all, as to type: functional, cell-based
The test system of assay [1] is MSC. Briefly: Induction of differentiation of human umbilical cord tissue-derived MSC to neurons assessed as upregulation of RTN4 levels at 10 uM after 11 days by End PCR analysis.
Assay [2] concerns MSC. Briefly: Induction of differentiation of human umbilical cord tissue-derived MSC to neurons assessed as upregulation of agrin levels at 10 uM after 11 days by End PCR analysis.
In assay [3] the test system is MSC. Briefly: Induction of differentiation of human umbilical cord tissue-derived MSC to neurons assessed as upregulation of nestin levels at 10 uM after 11 days by End PCR analysis.
Assay [4] relates to MSC. Briefly: Induction of differentiation of human umbilical cord tissue-derived MSC to neurons assessed as phenotypic changes in cell at 10 uM after 11 days by End PCR analysis.

Calls of active or inactive are those of the source. The rule behind the calls is not given here.

For `CO[C@H]1[C@@H](OC)C[C@H](C)Cn2cc(nn2)COC(=O)/C(C)=C/CC[C@H](OC)[C@H](CO[Si](C)(C)C(C)(C)C)OC(=O)[C@@H]1C`, the outcome in assay [1], in assay [2] and in assay [3] was Active.

Regarding `CO[C@@H](C[C@H](C)CO)[C@H](O)[C@@H](C)C(=O)N1C(=O)OC[C@H]1Cc1ccccc1`, the result in assay [1], in assay [4], in assay [2] and in assay [3] was Active.

As for `CO[C@H]1[C@@H](OC)C[C@H](C)Cn2cc(nn2)COC(=O)/C(C)=C/CC[C@H](OC)[C@H](CO)OC(=O)[C@@H]1C`, the outcome in assay [1], in assay [4], in assay [2] and in assay [3] was Active.

For `CO[C@@H]([C@H](C[C@H](C)CN=[N+]=[N-])OC)[C@@H](C)C(=O)N1C(=O)OC[C@H]1Cc1ccccc1`, the result in assay [1] and in assay [2] was Active. Moreover, in assay [3], the outcome was inactive.

Take `CO[C@H]1[C@@H](OC)C[C@H](C)Cn2cc(nn2)COC(=O)/C(C)=C/C=C\[C@H](OC)[C@H](CO[Si](C)(C)C(C)(C)C)OC(=O)[C@@H]1C`: the result in assay [1], in assay [2] and in assay [3] was Active.
